From patent US9956171B2, “Liquid inhalation formulation comprising RPL554” (VERONA PHARMA PLC, priority 2014, dated 2018)

Assay: Particle size distribution of micronized RPL554 by laser diffraction (Malvern Spraytec)
Assay type: physicochemical
From the text: The technique used to measure the Dv50 value is typically laser diffraction. For instance, the RPL554 particles typically have a particle size distribution with a Dv50 value of from about 0.2 μm to about 5 μm as measured by laser diffraction. The particle size distribution analysis can be performed by laser diffraction using the Malvern Spraytec in conjunction with a wet dispersion cell. Typically, the instrument parameters for the Malvern Spraytec are as follows: • particle—standard opaque particle; • refractive index Particle—1.50; • refractive index (imaginary)—0.50; • density of particle—1.00; • refractive index of dispersant—1.33; • controller unit—1000 RPM; • measurement type—timed; • initial sampling time—30 s; • obscuration—20%-30%; • dispersant—1% Polysorbate 20 in deionised water.
The particle size distribution of a sample of micronized RPL554 suitable for use in nebulized formulations was evaluated using laser diffraction. The particle size distribution analysis was performed by laser diffraction using the Malvern Spraytec in conjunction with a wet dispersion cell.

- Dv10: 0.69 μm
- Dv50: 1.35 μm
- Dv90: 2.5 μm
SMILES: COc1cc2c(cc1OC)-c1c/c(=N\c3c(C)cc(C)cc3C)n(CCNC(N)=O)c(=O)n1CC2 [RPL554, 9,10-Dimethoxy-2-(2,4,6-trimethylphenylimino)-3-(N-carbamoyl-2-aminoethyl)-3,4,6,7-tetrahydro-2H-pyrimido[6,1-a]isoquinolin-4-one]
